Values joined by “and” are separate entries in the source; they are usually repeats but may differ in a detail not shown here. Equal entries are not always repeated.
Experiments:
Zoogloea ramigera ABI 1 = assay: Induction of N-acetyldehydroleucine acylase in agitated cultures, changing of the inductor; assay type: cell-based; details: inductor 3 g/l; for Acylase activity after 60 hours of incubation as a function of the inductor: agitated culture, pH 7
Description: All raw extracts were tested at least with N-acetyldehydroleucine and N-acetyldehydroisoleucine but, in most cases, also with N-acetyldehydrovaline. […] The enzymatic reaction was stopped in the batches incubated at 30° C. by adding 0.25 ml color reagent (1 g/l 2,4-dinitrophenyl hydrazine in 2 N HCl). After further incubation at 30° C. for 10 minutes with N-acetyldehydroleucine as substrate or 25 minutes with the isoleucine or valine derivative, 1.5 ml 2,5 N NaOH was added.
The keto acid released by the enzymatic hydrolysis forms, together with the 2,4-dinitrophenyl hydrazine, a Schiff's base colored red in the alkaline whose absorption was measured in a spectral photometer at 442 nm against a batch without N-acetyldehydroamino acid (=enzyme blank). A blank reading was deducted from these extinction values which blank reading is obtained if the extinction value of a batch only with buffer (=buffer blank) is deducted from that of a batch with buffer and N-acetyldehydroamino acid but without raw extract (=substrate blank). The concentration of the product produced was determined with a calibrated reference for the corresponding keto acid. The enzyme activity is indicated in international units. One unit (U) corresponds to an amount of 1 μmole released keto acid per minute.
Different substances were added in a concentration of 3 g/l as inductors into agitated cultures with a medium of mineral salt solution (cf. Example 1) with 0.5 g/l yeast extract and 0.5 g/l peptone at pH 7. The technology for agitated cultures is described in Example 1 a).

[1] = tested on: N-acetyldehydroleucine acylase; assay: Acylase activity versus concentration of N-acetyldehydroamino acids (kinetic data); assay type: biochemical, Zoogloea ramigera
Description: The activity of the acylase was determined under standard conditions (cf. Example 8a)) with various N-acetyldehydroamino acids in concentrations of 0.1 to 300 mM. A second series of measurements with N-acetyldehydroleucinein the above-indicated concentration range was placed in 0.1 M tris/phosphoric acid buffer.
Reaction conditions: 0.1 M glycine, pH 9, 30° C.
Adaptation to the equation v = Vmax. · S/(KM + S +

[2] = tested on: N-acetyldehydroleucine acylase; assay: Hydrolysis of other compounds by the acylase (TLC / amino acid analyzer); assay type: biochemical, Zoogloea ramigera
Description: A qualitative check was performed for 81 compounds to see whether they are accepted as substrate by the acylase. The test batches contained:
After 16 and 40 hours incubation at 25° C., specimens were taken from the batches, most of which specimens were analyzed in comparison to substrate standards by means of thin-layer chromatography (70% (v/v) ethanol as mobile solvent). The detection took place with ninhydrin spray reagent. A few specimens were tested in addition or alternatively with the amino acid analyzer.
The amino acids produced from the amino acid amides by means of the action of acylase were detected quantitatively with the amino acid analyzer.

[3] = tested on: N-acetyldehydroleucine acylase; assay: Hydrolysis of hydantoins by the acylase; assay type: biochemical, Zoogloea ramigera; details: 25 mM substrate, 1 U/ml acylase, tris/phosphoric acid pH 9, 11.5 hours at 30° C.; ADL = 100%
Description: The test batches for the hydrolysis of hydantoins had the following composition:
25 mM substrate or buffer
50 mM tris/phosphoric acid buffer
Isopropylhydantoin, hydantoic acid and dihydrouracil were used as substrates. After 11.5 hours at 30° C., 175 μl 12% (w/v) trichloroacetic acid and 25 μl analytical reagent (10 % (w/v) […] in 6 N HCl) were added, precipitated protein centrifuged off in an Eppendorf table centrifuge and the absorption in the supernatants measured at 450 nm.

ADL acylase = assay: Influence of glycine on the reaction rate; assay type: biochemical, Zoogloea ramigera
Description: The reaction of glycine in 0 to 1.2 molar concentration dissolved in 0.1 M tris/HCl buffer was determined under standard conditions (example 8a).

## CCC(C)=C(NC(C)=O)C(=O)O [ADI, N-acetyl-2,3-didehydroisoleucine]
Zoogloea ramigera ABI 1
  Acylase activity after 60 hours of incubation as a function of the inductor: 0.172 U/mg
[1]; glycine, 0.1 M, pH 9, 30° C.
  % Vmax: 14%
  Km: 5.77 mM
[2]
  Substrate specificity: hydrolysis by the acylase: hydrolyzes

## CC(=O)NC(=Cc1ccccc1)C(=O)O [ACA, 2-acetylamino cinnamic acid]
Zoogloea ramigera ABI 1
  Induction capacity: only slightly active
  Acylase activity after 60 hours of incubation as a function of the inductor: 0.016 U/mg
[1]; glycine, 0.1 M, pH 9, 30° C.
  % Vmax: 46%
  Km: 2.62 mM
[2]
  Substrate specificity: hydrolysis by the acylase: hydrolyzes

## O=C1CCNC(=O)N1 [Dihydrouracil]
[3]
  rel. activity (%): 0%

## CC(=O)NC(=CC(C)C)C(=O)O [ADL, N-acetyl-2,3-didehydroleucine]
Zoogloea ramigera ABI 1
  Induction capacity: highest induction capacity
  Acylase activity after 60 hours of incubation as a function of the inductor: 0.222 U/mg
[1]; glycine, 0.1 M, pH 9, 30° C.
  % Vmax: 100%
  Km: 4.5 mM and 4.53 mM
[1]; glycine, 0.1 M, pH 9, 30° C., listed as N-acetyl-2,3-didehydroleucine
  Km: 4.5 mM
[1]; tris-phosphoric acid 0.1 M
  % Vmax: 62%
  Km: 7.01 mM
[2]; 50 mM test substrate, 0.1 M tris/HCl pH 9, 25° C., hydrolysis rate with N-acetyldehydroleucine = 100%
  rel. activity (%): 100.0%

## NCC(=O)O [Glycine, glycine]
ADL acylase
  Influence of activators on substrate splitting: accelerates the substrate splitting as a function of the concentration
ADL acylase; 0.1 M tris/HCl buffer, calculation according to Ingami and Murachi, read-out: Glycine concentration necessary for one-half the maximum reaction acceleration
  EC50: 90 mM

## CC(C)C1NC(=O)NC1=O (stereo not shown) [Isopropy hydantoin]
[3]
  rel. activity (%): 0%

## CC(=O)N[C@@H](CC(C)C)C(=O)O [Ac-L-leucine, N-acetyl-L-leucine]
Zoogloea ramigera ABI 1
  Acylase activity after 60 hours of incubation as a function of the inductor: 0.018 U/mg

## CC(=O)NC(C(=O)O)=C(C)C [ADV, N-acetyl-2,3-didehydrovaline]
Zoogloea ramigera ABI 1
  Acylase activity after 60 hours of incubation as a function of the inductor: 0.121 U/mg
[1]; glycine, 0.1 M, pH 9, 30° C.
  % Vmax: 23%
  Km: 20.9 mM
[2]
  Substrate specificity: hydrolysis by the acylase: hydrolyzes

## CC[C@H](C)[C@H](NC(C)=O)C(=O)O [Ac-L-isoleucine]
Zoogloea ramigera ABI 1
  Acylase activity after 60 hours of incubation as a function of the inductor: 0.039 U/mg

## CC(=O)NC(Cc1c[nH]c2ccccc12)C(=O)O (racemic) [Ac-D,L-tryptophan]
Zoogloea ramigera ABI 1
  Acylase activity after 60 hours of incubation as a function of the inductor: 0.018 U/mg

Reference: US5134073A, “Microbiologically produced N-acetyl-2,3-didehydroleucine acylase” (Degussa Aktiengesellschaft, priority 1989, dated 1992)
